Data set [1] is classed as physicochemical. From the text: The PPG-1-PEG-9 lauryl glycol ether is capable of solubilizing up to 100 g per liter of neat propyl magnolol or isopropyl magnolol or up to 50 g per liter of butyl magnolol or isobutyl magnolol. In certain embodiments, the amount of PPG-1-PEG-9 lauryl glycol ether is at least 10 times the weight of the propyl magnolol or isopropyl magnolol in the composition. In certain embodiments, the amount of PPG-1-PEG-9 lauryl glycol ether is at least 20 times the weight of butyl or isobutyl magnolol in the composition.
PPG-1-PEG-9 lauryl glycol ether is available as Eumulgin™ L from Cognis Corporation.

Data set [2] in a line: Solubility of magnolol analogs in the combination of PPG-1-PEG-9 lauryl glycol ether, coceth-7 and PEG-40 hydrogenated castor oil (Eumulgin HPS). Format: physicochemical. Particulars: PPG-1-PEG-9 lauryl glycol ether in combination with coceth-7 and PEG-40 hydrogenated castor oil (Eumulgin HPS). From the text:
The PPG-1-PEG-9 lauryl glycol ether can also be included in combination with coceth-7 and PEG-40 hydrogenated castor oil. This combination is available as Eumulgin™ HPS from Cognis Corporation. When this combination is used, the solubility stays the same except for butyl magnolol. This combination solubilizes up to 100 g per liter of butyl magnolol as compared to up to 50 g per liter for PPG-1-PEG-9 lauryl glycol ether alone. In certain embodiments, the amount of this combination is at least 10 times the weight of butyl magnolol.

With `CCCCc1ccc(O)c(-c2cc(CCCC)ccc2O)c1` [butyl magnolol, 5,5′-di-n-butylbiphenyl-2,2′-diol], the “amount solubilized by PPG-1-PEG-9 lauryl glycol ether” value in data set [1] is listed as “up to 50 g per liter”. Further, the “amount solubilized by the combination” value in data set [2] is on record as “up to 100 g per liter”.

Regarding `CC(C)Cc1ccc(O)c(-c2cc(CC(C)C)ccc2O)c1` [isobutyl magnolol, 5,5′-di-isobutylbiphenyl-2,2′-diol], the “amount solubilized by PPG-1-PEG-9 lauryl glycol ether” value in data set [1] was “up to 50 g per liter”.

Take `CCCc1ccc(O)c(-c2cc(CCC)ccc2O)c1` [propyl magnolol, 5,5′-di-n-propylbiphenyl-2,2′-diol]: the “amount solubilized by PPG-1-PEG-9 lauryl glycol ether” value in data set [1] is listed as “up to 100 g per liter”.

Take `CC(C)c1ccc(O)c(-c2cc(C(C)C)ccc2O)c1` [isopropyl magnolol, 5,5′-di-isopropylbiphenyl-2,2′-diol]: the “amount solubilized by PPG-1-PEG-9 lauryl glycol ether” value in data set [1] is on record as “up to 100 g per liter”.
